The nature of this series: solvent given as SMILES.

As for `CC1(C)c2ccccc2N(c2ccc3c(c2)c2ccccc2c2nc4ccccc4nc32)c2ccccc21`, the absorption maximum (in Cc1ccccc1) was determined as 382 nm.
`C#CCn1c2ccccc2c2cc(/C=C/C3=[N+]4C(=C(c5ccc(I)cc5)c5c(C)c(Cl)c(/C=C/c6ccc7c(c6)c6ccccc6n7CC#C)n5[B-]4(F)F)C(C)=C3Cl)ccc21` had an absorption maximum (in CC#N) of 694 nm, an absorption maximum (in CS(C)=O) of 705 nm and an absorption maximum (in ClC(Cl)Cl) of 703 nm.
Take `CC1=CC(C)=[N+]2C1=C(c1ccc(I)cc1)c1c(C)cc(C)n1[B-]21OCCO1`: the absorption maximum (in ClC(Cl)Cl) turned out to be 507 nm.
`CC(C)c1cc(C(C)C)c(B2c3cc(N4c5ccccc5C(C)(C)c5ccccc54)ccc3N(c3ccccc3)c3ccc(N4c5ccccc5C(C)(C)c5ccccc54)cc32)c(C(C)C)c1` displayed an absorption maximum (in C1CCCCC1) of 374.83 nm.
`Cc1ccc(C(=O)OCc2ccc3c4cccc5cccc(c6cccc2c63)c54)cc1` displayed an absorption maximum (in CCO) of 438 nm.
Take `CC1=CC2=Nc3nc(C)[n+](C)cc3CN2C=C1`: the absorption maximum came out at 403 nm (in CC#N), 398 nm (in CCO) and 392 nm (in O).
In turn, `O=C1OC(=O)c2cc(Oc3ccccc3)c3c4ccc5c6c(cc(Oc7ccccc7)c(c7ccc1c2c73)c64)C(=O)OC5=O` showed an absorption maximum (in C1CCOC1) of 516 nm, an absorption maximum (in CN1CCCC1=O) of 529 nm and an absorption maximum (in CN(C)C=O) of 530 nm.
Under “in CS(C)=O”, `CCCCN1/C(=C/C=C/C2=[N+](C)c3ccccc3C2(C)C)C(C)(C)c2c1ccc1ccccc21` yielded an absorption maximum of 572 nm.
`CCc1c(C)[nH]c(C2=[N+]3C(=C(C)c4c(C)c(CC)c(C)n4[B-]3(F)F)c3ccccc32)c1C`: the absorption maximum runs as follows: (in C1CCOC1) 618 nm; (in CC#N) 610 nm; (in CCCCCC) 620 nm; (in CO) 613 nm; (in Cc1ccccc1) 625 nm; (in ClCCl) 619 nm.
On to `CCOC(=O)c1sc2nc(-c3ccccc3)c(C)c(C#N)c2c1N`, for which the absorption maximum runs as follows: (in C1COCCO1) 420 nm; (in CC#N) 412 nm; (in CCO) 423 nm; (in CCOC(C)=O) 419 nm; (in ClC(Cl)Cl) 416 nm; (in c1ccccc1) 418 nm.
`CN(C)c1ccc(C#Cc2ccc(C=O)cc2)cc1`: the absorption maximum runs as follows: (in C1CCCCC1) 381.5 nm; (in C1CCOC1) 379.51 nm; (in C1COCCO1) 375.01 nm; (in CC1CCCO1) 382 nm; (in CC#N) 375.01 nm; (in CC(C)=O) 388 nm. In addition, the absorption maximum is given as 383.49 nm (in CC(C)CC(C)(C)C); 380.5 nm (in CC(C)O); 383 nm (in CCCCCCCCCCCCCCCC); 390 nm (in CCCCCCCCCCCCCCCCCl); 375.01 nm (in CCOC(C)=O); 372.49 nm (in CCOCC). In addition, the absorption maximum (in CN(C)C=O) is 379.51 nm, the absorption maximum (in CO) stood at 380.5 nm, the absorption maximum (in CS(C)=O) is on record as 387 nm and the absorption maximum (in Cc1ccccc1) worked out at 381.5 nm.
The compound `Brc1ccc(-c2pc3ccccc3s2)cc1` (stereo unspecified) registered an absorption maximum (in CC#N) of 337 nm.
For the compound `Brc1ccc(N(c2ccc(/C=C/c3ccncn3)cc2)c2ccc(/C=C/c3ccncn3)cc2)cc1`, the absorption maximum (in ClCCl) is recorded as 417 nm.
Under “in ClCCl”, `COC(=O)/C=C/C1=CC2=C(c3c(C)cc(C)cc3C)c3cc(/C=C/C(=O)OC)cn3[B-](F)(F)[N+]2=C1` showed an absorption maximum of 577 nm.
Same read-out and setting: for `CCCCCCOc1ccc(N(c2ccc(OCCCCCC)cc2)c2ccc(-c3sc(-c4ccc(N(c5ccc(OCCCCCC)cc5)c5ccc(OCCCCCC)cc5)cc4)c4nc(C(=O)OCC)c(C(=O)OCC)nc34)cc2)cc1` the value was 665 nm.
Regarding `NS(=O)(=O)c1ccc(N2N=C(c3ccc(O)cc3)CC2c2ccc([N+](=O)[O-])cc2)cc1` (stereo unspecified), the absorption maximum runs as follows: (in C1CCOC1) 353 nm; (in C1COCCO1) 353 nm; (in CC#N) 352 nm; (in CC(C)O) 352 nm; (in CCO) 352 nm; (in CCOC(C)=O) 352 nm. For the same compound, the absorption maximum is reported as 355 nm (in CN(C)C=O), 351 nm (in CO), 358 nm (in CS(C)=O) and 354 nm (in O).
Take `CC1=c2c3c4cccc5cccc(c=3c(C)[n+]2[B-](F)(F)n2c(C)c3cc6c(-c7ccccc7)c7c(c(-c8ccccc8)c6cc3c21)-c1cccc2cccc-7c12)c54`: the absorption maximum (in ClCCl) is 658 nm.
The compound `Cc1nc2c(ccc3ccccc32)oc1=O` came in with an absorption maximum (in c1ccccc1) of 364 nm.
With `COc1cc(OC)c2c(c1)c1cc3oc(=O)cc(C)c3cc1c1cc(OC)cc(OC)c12`, where the note is “in ClC(Cl)Cl”, the absorption maximum is 390 nm.
Under “in ClCCl”, `COC(=O)c1[nH]c(-c2ccccc2)c2nnc3ccsc3c12` displayed an absorption maximum of 401 nm.
Consider `Cc1ccccc1Oc1ccc2c3c(cccc13)C(=O)N(CCO)C2=O`, for which the absorption maximum (in ClC(Cl)Cl) was 355 nm.
`c1ccc2c(c1)Cc1ccccc1N2c1c2ccccc2c(N2c3ccccc3Cc3ccccc32)c2ccccc12` had an absorption maximum (in Cc1ccccc1) of 440 nm.
Compound `CCCCCCOc1ccc(-c2ccc(/C=C/c3cc(/C=C/c4ccc(-c5ccc(OCCCCCC)cc5)cc4)ncn3)cc2)cc1` yielded an absorption maximum (in ClCCl) of 373 nm.
Still for that read-out and setting: for `c1ccc(C2=C3c4ccccc4C4=[N+]3[B-]3(Oc5ccccc54)Oc4ccccc4-c4c5ccccc5c2n43)cc1` (stereo unspecified) the value was 711 nm; for `O=[N+]([O-])c1ccc(-c2nc(/C=C/c3ccc(Cl)cc3)c(/C=C/c3ccc(Cl)cc3)[nH]2)cc1`, 425 nm.
As for `O=[N+]([O-])c1ccc(NCCNCc2c3ccccc3cc3ccccc23)c([N+](=O)[O-])c1`, the absorption maximum is, setting by setting: (in C1CCCCC1) 368 nm; (in C1CCOC1) 349 nm; (in CC#N) 364 nm; (in CC(C)=O) 364 nm; (in CCO) 364 nm; (in CN(C)C=O) 363 nm. For the same compound, the absorption maximum (in CO) was found to be 348 nm and the absorption maximum (in ClC(Cl)Cl) is 350 nm.
For the setting “in CO”, `CC1=CC(/C=C/c2ccc(OCCCN=[N+]=[N-])cc2)=[N+]2C1=C(c1ccc(N3CCCCC3)cc1)c1c(C)cc(C)n1[B-]2(F)F` came in with an absorption maximum of 570 nm.
In the case of `F[B-]1(F)Oc2ccccc2-c2c3c(c4c([n+]21)CCc1ccccc1-4)CCc1ccccc1-3`, the absorption maximum (in ClCCl) stood at 347 nm.
For the compound `c1ccc([B-]2(c3ccccc3)Oc3ccc4ccccc4c3-c3c4ccccc4cc[n+]32)cc1`, where the note is “in Cc1ccccc1”, the absorption maximum was found to be 427 nm.
Under “in C1CCOC1”, `F[B-]1(F)Oc2ccccc2-c2n(-c3ccc(C(F)(F)F)cc3)c(-c3ccccc3)c(-c3ccccc3)[n+]21` came in with an absorption maximum of 327 nm.
For the setting “in ClCCl”, `CN(C)c1cc(-c2ccc(C#Cc3cc[n+](C)cc3)cc2)cc2ccccc12` returned an absorption maximum of 366 nm.
`CCOC(=O)CCCCCn1c2ccccc2c(=O)c2cc3c(cc21)c(=O)c1cc(I)ccc1n3CCCCCC(=O)OCC` displayed an absorption maximum (in CO) of 535 nm.
With `COc1ccc(C#Cc2c(C#Cc3ccc(OC)cc3)c(C#Cc3ccc(OC)cc3)c(C#Cc3ccc(OC)cc3)c(C#Cc3ccc(OC)cc3)c2C#Cc2ccc(OC)cc2)cc1`, the absorption maximum (in ClCCl) was 386 nm.
Consider `O=C([O-])c1ccccc1-c1c2cc(Br)c(=O)c(Br)c-2oc2c(Br)c([O-])c(Br)cc12`, for which the absorption maximum is, setting by setting: (in CC(C)O) 529 nm; (in CCO) 527 nm; (in CO) 522 nm; (in O) 515 nm.
Consider `CCN(CC)c1ccc(-c2ccc(-c3nc(C#N)c4ccccc4n3)s2)cc1`, for which the absorption maximum reads like this: (in CC#N) 397 nm; (in Cc1ccccc1) 402 nm.
`O=C(O)C1=C(C(=O)O)C2=C[C@H]3c4ccccc4[C@]2([Se]1)c1ccccc13` returned an absorption maximum (in ClCCl) of 421 nm.
Compound `c1ccc2c(c1)-c1ccccc1C21c2cc(-c3ccc(-n4c5ccccc5c5ccccc54)cc3)ccc2Sc2ccc(-c3ccc(-n4c5ccccc5c5ccccc54)cc3)cc21` registered an absorption maximum (in ClCCl) of 341 nm.
Still for that read-out and setting: for `CCCCN1C(=O)C2=C(c3ccc(Br)cc3)NC(=O)C2=C1c1ccc(Br)cc1` the value was 477 nm.
Under “in Cc1ccccc1”, `c1cc2c3cc1c1ccc4c(c1)c1cc(ccc1[C@]15OCCO[C@]41OCCO5)c1ccc4c(c1)c1cc(ccc1[C@]15OCCO[C@]41OCCO5)c1ccc(c3c1)[C@]13OCCO[C@]21OCCO3` returned an absorption maximum of 300 nm.
As to `CCN(CC)c1ccc(C2=C3C(C)=CC(C)=[N+]3[B-](F)(F)n3c(C)cc(C)c32)cc1`, under “in CO”, the absorption maximum came out at 500 nm.
The compound `Cc1cc(C)c(C)c(-c2cc(-c3c(C)c(C)cc(C)c3C)c3ccc4c(-c5c(C)c(C)cc(C)c5C)cc(-c5c(C)c(C)cc(C)c5C)c5ccc2c3c54)c1C` displayed an absorption maximum (in ClCCl) of 364 nm.
Consider `CCOC(=O)/C=C/c1ccc(N(C)C)cc1`, for which the absorption maximum was determined as 353 nm (in C1CCCCC1); 362 nm (in C1CCOC1); 359 nm (in C1COCCO1); 363 nm (in CC#N); 363 nm (in CCCCCCCCO); 365 nm (in CCCCCCO). Further, the absorption maximum runs as follows: (in CCCCO) 363 nm; (in CCCO) 364 nm; (in CCO) 363 nm; (in CCOC(C)=O) 360 nm; (in CO) 362 nm; (in Cc1ccccc1) 362 nm. This compound also came in with an absorption maximum (in O) of 373 nm and an absorption maximum (in c1ccccc1) of 363 nm.
Turning to `C1CCN2CCCn3c2c(c2c3=NCCN=2)C1`, the absorption maximum is 370 nm (in CC#N) and 352 nm (in CCCCCC).
For the compound `COc1ccc(-c2c(-c3ccc(OC)cc3)c3c4c(cccc4c2-c2ccccc2)C(=O)c2ccccc2-3)cc1`, the absorption maximum amounted to 402 nm (in CC#N) and 407 nm (in CO).
Consider `CCn1ncc2c3c(C#N)c4c5ccccc5n(C)c4nc3ccc21`, for which the absorption maximum (in CCOC(C)=O) is 383 nm.

The record behind these values is the Deep4Chem optical property database.
